# Earlier results as cited in PMC7397249, “Properly Substituted Cyclic Bis-(2-bromobenzylidene) Compounds Behaved as Dual p300/CARM1 Inhibitors and Induced Apoptosis in Cancer Cells” (Molecules, 2020).
# Experiments:
# [1] = system: p300 HAT; conditions: cited from earlier work
# [2] = biological target: T1, CARM1 (Homo sapiens, UniProt Q86X55); set-up: method as in PMID 21612300; conditions: cited from earlier work
# T1 sequence (Q86X55 1-608): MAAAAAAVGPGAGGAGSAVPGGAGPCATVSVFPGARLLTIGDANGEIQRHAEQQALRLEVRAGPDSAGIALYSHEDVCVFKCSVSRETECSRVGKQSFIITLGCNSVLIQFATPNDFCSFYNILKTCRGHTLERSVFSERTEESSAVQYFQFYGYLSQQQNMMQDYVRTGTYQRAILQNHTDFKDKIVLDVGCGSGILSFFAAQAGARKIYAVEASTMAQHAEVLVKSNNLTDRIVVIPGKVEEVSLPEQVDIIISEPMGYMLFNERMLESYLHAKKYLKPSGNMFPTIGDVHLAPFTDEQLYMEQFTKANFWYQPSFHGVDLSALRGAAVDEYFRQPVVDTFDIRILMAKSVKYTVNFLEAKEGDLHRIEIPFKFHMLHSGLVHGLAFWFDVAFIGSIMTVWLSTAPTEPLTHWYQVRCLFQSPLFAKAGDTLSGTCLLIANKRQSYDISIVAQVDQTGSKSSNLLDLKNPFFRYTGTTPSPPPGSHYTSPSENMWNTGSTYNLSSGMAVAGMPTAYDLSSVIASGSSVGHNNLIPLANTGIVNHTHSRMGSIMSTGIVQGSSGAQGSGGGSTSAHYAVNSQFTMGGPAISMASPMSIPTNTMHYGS
# [3] = system: SET7; set-up: method as in PMID 21612300; conditions: cited from earlier work
# [4] = system: EZH2; conditions: ref unpublished results; cited from earlier work
# [5] = system: PRMT1; set-up: method as in PMID 21612300; conditions: cited from earlier work
compound,measurement,setting,value
O=C1/C(=C/c2ccc(O)c(Br)c2)CN(Cc2ccccc2)C/C1=C\c1ccc(O)c(Br)c1 [Compound 2],p300 HAT inhibition (active/inactive),[1],inactive
same,CARM1 inhibition (active/inactive),[2],active
same,SET7 inhibition (active/inactive),[3],inactive
same,EZH2 inhibition (active/inactive),[4],active
same,PRMT1 inhibition (active/inactive),[5],inactive
